{"source": "patent US8541476B2", "about": "“Compounds for treatment of malignant tumors” (The Trustees of the University of Pennsylvania, priority 2007, dated 2013)", "key": {"[1]": {"test_system": "U251 cells transplanted into ZF embryos", "assay": "U251 xenograft ZF model (U251-RFP fluorescence)", "assay_type": "in vivo, Danio rerio", "description": "ZF were raised in accordance with previously established protocols (McAleer, et al., 2005, J. Radiat. Oncol. Biol. Phys. 61:10-3) at the University of Pennsylvania School of Medicine. Embryos were maintained at 30° C. after transplantation procedures. The age of embryos is indicated as the hours post-fertilization (hpf) and days post-fertilization (dpf) for all experimental data shown. Embryos were either irradiated with 10 Gy or sham-irradiation as previously described (McAleer, et al., 2005, J. Radiat. Oncol. Biol. Phys. 61:10-3) immediately after photography at 24 hpf. Selected embryos were incubated with NS-123 at a concentration of 30 μM for 14 hours before either irradiation or sham-irradiation.\nU251 cells were stably transfected with a RFP construct (pDsRed2-C 1; Clontech, Palo Alto, Calif.). Using a Nanoject II microinjector (Drummond Scientific, Broomall, Pa.) 1-100 cells were transplanted into each ZF embryo still in the chorion, from the high stage of their development (approximately 3.5 hpf) to the oblong-sphere stage (approximately 4.5 hpf). The transplantation site was localized either to the blastodisc approximately halfway between the margin and the animal pole or the center of the embryonic yolk sac. Morphological analysis was performed as previously described (Geiger, et al., 2006, Cancer Res. 66:8172-81). Transplanted embryos were examined under a 100× PlanNeofluor objective mounted on a Nikon TE-200 epifluorescence microscope. Images of embryos bearing RFP-positive cells were captured with a Hammamatsu CCD camera controlled with IP LabSpectrum v2.0.1 software (Scanalytics, Inc., Rockville, Md.). Image analysis and pseudocoloring was performed with Kodak Molecular Imaging software v. 4.0.5 (Kodak, Rochester, N.Y.). […]\nHuman cancer cells can be transplanted into ZF embryos through microinjection (Lee et al., 2005, Dev. Dyn. […]:1560-1570; Haldi et al., 2006, Angiogenesis 9:139-151; Mizgireuv et al., 2006, Cancer Res. 66:3120-3125). […] The embryos were subsequently examined for fluorescence on sequential days following irradiation."}, "[2]": {"test_system": "dsDNA break repair in U251 cells", "assay": "DSB measurement by PFGE and number average length analysis", "assay_type": "cell-based, human", "settings": "U251, 30 μM 4 hours, 4 Gy", "description": "Cells were treated with 30 μM NS-123 or DMSO alone. Four hours later, the cells were either sham-irradiated, or irradiated with 4 Gy of ^137Cs γ-rays (Radiation Facility, Brody School of Medicine, ECU) at the dose rate of 0.57 Gy/min and placed immediately at 37° C. in fresh medium without NS-123 and harvested at different repair times up to 24 hours. No significant changes in the percentage of dead cells were detected by trypan blue exclusion as a result of irradiation. […] A DNA dispersion curve relating DNA length to electrophoretic mobility, based on all length standards was determined from an analytical mobility function as previously described using number average length analysis (NALA) (Seo, et al., 2005, Clin. Cancer Res. 11:7499-507).\nAs a first step in understanding the mechanism of the radiosensitizing activity of NS-123, the processing of DSBs in U251 cells treated with 30 μM NS-123 or DMSO (control) was measured using an adaptation of PFGE. […] Therefore, a 4 hour, 30 μM NS-123 treatment for experiments analyzing the effects of NS-123 on DSB repair and immunoblotting was used (see below) which require a significant quantity of cells. […]"}}}
{"smiles": "CCC(=O)c1ccc(Br)c([N+](=O)[O-])c1", "note": "[NS-123, 4′-bromo-3′-nitropropiophenone]", "values": [{"measurement": "surviving U251 cells, irradiated in the presence of drug", "setting": "[1]; NS-123 + 10 Gy IR, 5 dpf", "result": "markedly fewer cells"}, {"measurement": "relative fluorescence versus irradiated-only control", "setting": "[1]; NS-123 + IR, 10 embryos/condition/experiment", "result": "faster decrease in luminescence"}, {"measurement": "size of U251 xenografts, drug alone", "setting": "[1]; NS-123 alone, 3 or 5 dpf", "result": "did not have any significant effect on the size"}, {"measurement": "initial number of dsDNA breaks", "setting": "[2]", "result": "88.5±5.3", "unit": "DSBs/Gbp"}, {"measurement": "residual DSB damage compared to initial levels", "setting": "[2]; 24 hours repair", "result": "~25", "unit": "%"}]}
